Reference: patent US11807640B1 (priority 2023, dated 2023)
≈ marks a conversion by molar mass, not a printed value.

Tested on: Mycobacterium tuberculosis (MTB) H37Rv
Assay: Resazurin Microplate Assay (REMA), anti-tubercular screening, H37Rv
Type: cell-based
Conditions: 192 h, Middlebrook 7H9 broth, 37° C., 8 days incubation then resazurin overnight, read-out: MIC (μg/mL) H37Rv

## CCOC(=O)c1cc(C(=O)c2ccc(F)cc2)n2ccc(C(=O)OC(C)C)cc12 [KNV-4, 1-Ethyl 7-isopropyl 3-(4-fluorobenzoyl)indolizine-1,7-dicarboxylate]
  MIC: 1 µg/mL (≈ 2.52 µM)

## COC(=O)c1c(C(=O)OC)c2cc(C(=O)OC(C)C)ccn2c1C(=O)c1ccc(Br)cc1 [KNV-7, 7-Isopropyl 1,2-dimethyl 3-(4-bromobenzoyl)indolizine-1,2,7-tricarboxylate]
  MIC: 1 µg/mL (≈ 1.99 µM)
